ChEMBL document CHEMBL3407492, “BMS-871: a novel orally active pan-Notch inhibitor as an anticancer agent” (Bioorg Med Chem Lett, 2015)

Experiments:
[1] = Metabolic stability in mouse liver microsomes assessed as fraction of 0.5 uM parent compound remaining after 10 mins; format: ADME; details: read-out: Stability
[2] = Metabolic stability in human liver microsomes assessed as fraction of 0.5 uM parent compound remaining after 10 mins; format: ADME; details: read-out: Stability
TALL-1 [3] = experiment: Anticancer activity against human TALL-1 cells assessed as cell number by coulter channelyzer; format: functional, cell-based
TALL-1 [4] = experiment: In vivo antitumor activity against human TALL-1 cells xenograft model assessed as tumor growth inhibition at 24 mg/kg, po qd for 10 days on - 2 days off - 5 days on; format: functional; details: read-out: TGI
MDA-MB-157 [5] = experiment: In vivo antitumor activity against human MDA-MB-157 cells xenograft model assessed as tumor growth inhibition at 30 mg/kg, po qd for 10 days on - 2 days off - 5 days on; format: functional; details: read-out: TGI
MDA-MB-157 [6] = experiment: In vivo antitumor activity against human MDA-MB-157 cells xenograft model assessed as tumor growth inhibition at 15 mg/kg, po qd for 10 days on - 2 days off - 5 days on; format: functional; details: read-out: TGI
TALL-1 [7] = experiment: In vivo antitumor activity against human TALL-1 cells xenograft model assessed as tumor growth inhibition at 6 mg/kg, po qd for 10 days on - 2 days off - 5 days on; format: functional; details: read-out: TGI
TALL-1 [8] = experiment: In vivo antitumor activity against human TALL-1 cells xenograft model assessed as tumor growth inhibition treated po qd for 10 days on - 2 days off - 5 days on; format: functional, organism-based
MDA-MB-157 [9] = experiment: In vivo antitumor activity against human MDA-MB-157 cells xenograft model assessed as tumor growth inhibition at 7.5 mg/kg, po qd for 10 days on - 2 days off - 5 days on; format: functional; details: read-out: TGI

SMILES	remaining at 10 min, 0.5 µM [1] [%]	remaining at 10 min, 0.5 µM [2] [%]	IC50 (TALL-1 [3]) [nM]	other results
CCC(CC)[C@H](C(N)=O)[C@@H](CCC(F)(F)F)C(=O)N[C@H]1N=C(c2ccccc2)c2ccccc2N(C)C1=O	7	5		
COc1ccc([C@H](C(N)=O)[C@@H](CCC(F)(F)F)C(=O)N[C@H]2N=C(c3ccccc3)c3ccccc3N(C)C2=O)cc1	5	62	4	
CCC(CC)[C@H](C(N)=O)[C@@H](CC(C)C)C(=O)N[C@H]1N=C(c2ccccc2)c2ccccc2N(C)C1=O	2	2	3	
CN1C(=O)[C@@H](NC(=O)[C@H](CCC(F)(F)F)[C@@H](C(N)=O)c2ccc(F)cc2)N=C(c2ccccc2)c2ccccc21	65	95	5	
Cc1cccc([C@H](C(N)=O)[C@@H](CCC(F)(F)F)C(=O)N[C@H]2N=C(c3ccccc3)c3ccccc3N(C)C2=O)c1	7	23	15	
CN1C(=O)[C@@H](NC(=O)[C@H](CCC(F)(F)F)[C@@H](C(N)=O)c2cccc(OC(F)(F)F)c2)N=C(c2ccccc2)c2ccccc21	82	100	26	
CCC[C@H](C(N)=O)[C@@H](CC(F)(F)F)C(=O)N[C@H]1N=C(c2ccccc2)c2ccccc2N(C)C1=O	51	45	158	
CN1C(=O)[C@@H](NC(=O)[C@H](CCC(F)(F)F)[C@@H](C(N)=O)c2cccc(S(C)(=O)=O)c2)N=C(c2ccccc2)c2ccccc21	62	93		
CN1C(=O)[C@@H](NC(=O)[C@H](CCC(F)(F)F)[C@@H](C(N)=O)c2ccc(F)cc2F)N=C(c2ccccc2)c2ccccc21	31	100	4	
NC(=O)[C@@H](c1cnoc1)[C@@H](CCC(F)(F)F)C(=O)N[C@H]1N=C(c2ccccc2)c2ccccc2NC1=O	100	96		
CN1C(=O)[C@@H](NC(=O)[C@H](CCC(F)(F)F)[C@@H](C(N)=O)c2cc(F)cc(F)c2)N=C(c2ccccc2)c2ccccc21	21	94	4	
CN1C(=O)[C@@H](NC(=O)[C@H](CCC(F)(F)F)[C@@H](C(N)=O)c2ccccc2)N=C(c2ccccc2)c2ccccc21	74	95	4	inhibition in vivo at 24 mg/kg (TALL-1 [4]): 102%; inhibition in vivo at 30 mg/kg (MDA-MB-157 [5]): 99%; inhibition in vivo at 15 mg/kg (MDA-MB-157 [6]): 76%; inhibition in vivo at 6 mg/kg (TALL-1 [7]): 71%; inhibition (TALL-1 [8]): Dose-dependent effect; inhibition in vivo at 7.5 mg/kg (MDA-MB-157 [9]): 63%
CCC(CC)[C@H](C(N)=O)[C@@H](CC(C)(C)C)C(=O)N[C@H]1N=C(c2ccccc2)c2ccccc2N(C)C1=O	6	1		
CN1C(=O)[C@@H](NC(=O)[C@H](CCC(F)(F)F)[C@@H](C(N)=O)c2cccc(C(F)(F)F)c2)N=C(c2ccccc2)c2ccccc21	59	92	13	
CN1C(=O)[C@@H](NC(=O)[C@H](CCC(F)(F)F)[C@@H](C(N)=O)c2ccc(F)c(F)c2)N=C(c2ccccc2)c2ccccc21	29	94	4	
NC(=O)[C@@H](c1ncon1)[C@@H](CCC(F)(F)F)C(=O)N[C@H]1N=C(c2ccccc2)c2ccccc2NC1=O	83	84		
Cc1cc([C@H](C(N)=O)[C@@H](CCC(F)(F)F)C(=O)N[C@H]2N=C(c3ccccc3)c3ccccc3N(C)C2=O)no1	10	94		
Cc1nocc1[C@H](C(N)=O)[C@@H](CCC(F)(F)F)C(=O)N[C@H]1N=C(c2ccccc2)c2ccccc2N(C)C1=O	23	78		
Cc1nc([C@H](C(N)=O)[C@@H](CCC(F)(F)F)C(=O)N[C@H]2N=C(c3ccccc3)c3ccccc3N(C)C2=O)no1	24	100		
NC(=O)[C@@H](c1cocn1)[C@@H](CCC(F)(F)F)C(=O)N[C@H]1N=C(c2ccccc2)c2ccccc2NC1=O	99	86		
